Measured values as given in patent US11096916B2, “Use of nicotinic acetylcholine receptor alpha 7 activators” (NOVARTIS AG, priority 2009, dated 2021).

How the values were obtained:
parkinsonian primates = assay: Assessment of antidyskinetic effect in parkinsonian primates (MPTP, levodopa-induced dyskinesia); format: in vivo, cynomolgus monkeys (Macaca fascicularis); details: for Duration of Levodopa-Response / Mean Dyskinesia Score (total period): five MPTP monkeys
Experimental: Female ovariectomized cynomolgus monkeys (Macaca fascicularis) are used in the assessment. The animals can be rendered parkinsonian by continuous infusion of 1-methyl-4-phenyl-1,2,3,6-tetrahydropyridine (MPTP) until they develop a stable parkinsonian syndrome. After recuperation, animals are treated daily with levodopa until clear and reproducible dyskinesias are developed.
Monkeys are observed through a one-way screen window in their home cage. They are observed and scored repeatedly at baseline and after a standard s.c. dose of levodopa. Locomotor activity is assessed and followed with an electronic monitoring system. Antiparkinsonian responses are evaluated by measuring the locomotor activity and a Parkinson disability scale (see Hadj Tahar A et al, Clin Neuropharmacol 2000; 23:195-202; and Samadi P et al, Neuropharmacology 2003; 45:954-963). Dyskinesias are closely monitored and scored according to a dyskinesia rating scale (also described in Hadj Tahar A et al; and Samadi P et al) every 15 minutes until the end of the effect. The doses of levodopa are chosen to induce motor activation and reproducible dyskinesia but no excessive agitation.
Monkeys are observed for at least two hours following an oral administration of vehicle. On a subsequent day, the dose of levodopa selected is tested once. The animals are observed (with measures of parkinsonian and dyskinetic scores) for the entire duration of the levodopa effect and are also monitored for locomotor activity. This provides vehicle control values as well as levodopa antiparkinsonian and dyskinesia response data for comparison with combinations of a α7-nAChR agonist/positive allosteric modulator and levodopa. The monkeys are then tested with a α7-nAChR agonist/positive allosteric modulator in combination with a fixed dose of levodopa. A suspension for oral administration of the α7-nAChR agonist/positive allosteric modulator is administered before levodopa. After each dose, the animals are observed (with measures of parkinsonian and dyskinetic scores) for the entire duration of effect and monitored for locomotor activity or any change in behavior (e.g. circling, excitement, lethargy and sleepiness).
Using this protocol, compound A-1 at a dose of 20 mg/kg was tested. Results based on five monkeys (levodopa/benserazide doses: 22.5/50 mg; 65/50 mg; 30/50 mg; 35/50 mg; and 25/50 mg) are shown in FIGS. 1-4.

[1] = Oral bioavailability and brain penetration in mice; format: in vivo; details: 30 μmol/kg p.o.
Experimental: Compounds were orally (30 μmol/kg) administered. Male mice (30-35 g, OF1/ICstrain) were sacrificed at indicated time points after oral administration. Trunk-blood was collected in EDTA-containing tubes and the brain was removed and immediately frozen on dry ice.
To 100 μl plasma 10 μl internal standard (1.0 μmol of a compound with solubility and ionization properties similar to test compounds) was added and extracted three times with 500 μl dichloromethane. The combined extracts were then dried under a stream of nitrogen and re-dissolved in 100 μl acetonitrile/water (70% acetonitrile). Brains were weighed and homogenized in water (1:5 w/v). Two 100 μl aliquots of each homogenate+10 μl of internal standard (same standard as used for the plasma samples) were extracted three times with 500 μl dichloromethane and further processed as the plasma samples. Samples were separated on Beckmann high-performance liquid chromatography equipment system with an autosampler (Gilson 233XL).
The limit of detection (LOD), defined as the lowest concentration of the extracted standard sample with a signal to noise ratio of ˜3.

[2] = biological target: T1, human neuronal nAChR α4β2 (Homo sapiens, UniProt P17787+P43681); assay: similar functional assay in human epithelial cell line stably expressing human α4β2 subtype; format: cell-based; details: α7-nAChR against α4β2-nAChR
T1 construct: expressed in transfected cells; host or cells: human epithelial cell line (named a human embryonic kidney cell line)
T1 sequence (P43681 29-627 limits assumed): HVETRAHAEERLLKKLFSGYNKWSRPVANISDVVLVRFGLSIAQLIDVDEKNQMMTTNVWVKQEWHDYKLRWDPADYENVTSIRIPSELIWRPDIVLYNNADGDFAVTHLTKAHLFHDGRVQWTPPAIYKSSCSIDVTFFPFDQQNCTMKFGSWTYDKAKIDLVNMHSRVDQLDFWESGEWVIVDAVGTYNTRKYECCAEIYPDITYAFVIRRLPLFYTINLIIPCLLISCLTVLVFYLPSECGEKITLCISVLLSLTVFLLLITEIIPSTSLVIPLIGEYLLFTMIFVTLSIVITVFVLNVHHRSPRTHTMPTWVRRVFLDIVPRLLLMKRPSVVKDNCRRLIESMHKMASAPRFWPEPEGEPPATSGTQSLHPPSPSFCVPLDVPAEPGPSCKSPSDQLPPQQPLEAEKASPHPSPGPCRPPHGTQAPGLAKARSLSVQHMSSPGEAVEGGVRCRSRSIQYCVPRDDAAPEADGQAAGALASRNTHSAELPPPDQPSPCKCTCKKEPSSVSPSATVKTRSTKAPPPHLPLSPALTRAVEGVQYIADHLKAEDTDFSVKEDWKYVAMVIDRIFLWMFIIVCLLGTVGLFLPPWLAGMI
T1 sequence (P17787 26-502): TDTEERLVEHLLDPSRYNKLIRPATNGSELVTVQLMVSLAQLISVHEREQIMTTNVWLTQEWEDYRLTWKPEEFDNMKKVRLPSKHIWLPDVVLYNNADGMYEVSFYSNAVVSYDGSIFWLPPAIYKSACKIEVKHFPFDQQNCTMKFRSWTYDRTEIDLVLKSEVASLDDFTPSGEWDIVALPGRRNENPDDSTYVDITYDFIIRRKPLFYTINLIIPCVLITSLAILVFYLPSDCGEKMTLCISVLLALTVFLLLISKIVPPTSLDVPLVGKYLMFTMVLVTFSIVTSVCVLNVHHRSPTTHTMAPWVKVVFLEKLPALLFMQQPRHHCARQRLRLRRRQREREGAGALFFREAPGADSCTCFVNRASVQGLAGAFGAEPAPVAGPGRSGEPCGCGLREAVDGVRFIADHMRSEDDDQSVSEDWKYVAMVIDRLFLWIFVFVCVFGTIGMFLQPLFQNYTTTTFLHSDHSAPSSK
Experimental: To assess the activity of the compound of the invention on the human neuronal nAChR α4β2, a similar functional assay is carried out using a human epithelial cell line stably expressing the human α4β2 subtype (Michelmore et al., Naunyn-Schmiedeberg's Arch. Pharmacol. (2002) 366, 235).

mice = assay: Social Recognition Test in mice; format: in vivo, mouse; details: oral, familiar partner at 24 h vs time 0
Experimental: Social interactions between two experimental animals are influenced by their degree of familiarity: the better they know each other, the less time they spend on mutual scrutiny at each meeting. […] Memory enhancing agents (i.e. oxiracetam) facilitate learning to the extent that the previously met (familiar) partner is still remembered after 24 h, whereas in vehicle treated control animals the memory usually fades after less than 1 hour (Thor and Holloway, 1982) or after 2-3 hours.
Pairs consisting of one adult and one young mouse were assigned at random to the experimental and control groups. In each pair only the adult mouse was orally treated 1 hour before the trial with either vehicle or the test compound. The duration of active contacts of the adult mouse with the young mouse was manually recorded over a period of 3 min, including the following behavioural, approach-related items: sniffing, nosing, grooming, licking, pawing and playing, anogenital exploration and orientation toward the young mouse; orientation, thereby, was defined as tip of nose of the adult mouse less than approximately 1 cm distant from the young mouse's body.
Twenty-four hours after the baseline-test, the adults in each treatment group were confronted again with […] the half of the adult animals were put together with the previously encountered (familiar) partner and the other half with another (unfamiliar) young mouse. Again the duration of active approach-behaviours was recorded during a 3-min period. Prior to re-test no oral injection was given.
In the table the reduction in time scrutinizing the familiar partner at time 24 compared with the familiar partner at time 0 minutes is given (value of zero would signify no reduction).

human α7-nAChR = biological target: T2, human α7-nAChR (Homo sapiens, UniProt P36544); assay: functional assay, calcium influx (FLIPR) in GH3 cells recombinantly expressing human α7-nAChR; format: cell-based; details: for α7-nAChR activity Efficacy compared to epibatidine (100%): Emax, maximal effect compared to the epibatidine response
T2 construct: expressed in transfected cells; host or cells: GH3 cells (rat pituitary cell line)
T2 sequence (P36544 23-502): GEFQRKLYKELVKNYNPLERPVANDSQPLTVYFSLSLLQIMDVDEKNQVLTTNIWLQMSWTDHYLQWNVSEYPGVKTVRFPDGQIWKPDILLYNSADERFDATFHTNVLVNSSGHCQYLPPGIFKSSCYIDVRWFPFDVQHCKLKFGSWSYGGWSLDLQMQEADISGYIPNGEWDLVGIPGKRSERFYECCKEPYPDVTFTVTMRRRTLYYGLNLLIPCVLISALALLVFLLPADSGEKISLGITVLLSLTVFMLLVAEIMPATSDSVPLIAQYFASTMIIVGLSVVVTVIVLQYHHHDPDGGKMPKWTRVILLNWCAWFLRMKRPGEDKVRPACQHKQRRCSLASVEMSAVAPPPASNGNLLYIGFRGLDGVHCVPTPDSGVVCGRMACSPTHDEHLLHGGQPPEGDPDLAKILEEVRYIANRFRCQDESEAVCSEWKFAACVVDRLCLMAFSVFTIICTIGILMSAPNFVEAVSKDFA
Experimental: To assess α7-nAChR activity, a functional assay was employed using GH3 cells that recombinantly expressed human α7-nAChR. 50000 cells per well were seeded 72 h prior to the experiment on black 96-well plates (Costar) and incubated at 37° C. in a humidified atmosphere (5% CO2/95% air). On the day of the experiment, medium was removed by flicking the plates and replaced with 100 μl growth medium containing […] Fluo-4, (Molecular Probes) in the presence of 2.5 mM probenecid (Sigma). The cells were incubated at 37° C. in a humidified atmosphere (5% CO2/95% air) for 1 h. Plates were flicked to remove excess of Fluo-4, washed twice with Hepes-buffered salt solution (in mM: NaCl 130, KCl 5.4, CaCl2 2, MgSO4 0.8, NaH2PO4 0.9, glucose 25, Hepes 20, pH 7.4; HBS) and refilled with 100 μl of HBS containing antagonist when appropriate. The incubation in the presence of the antagonist lasted 3-5 minutes. Plates were placed in the cell plate stage of a FLIPR device (fluorescent imaging plate reader, Molecular Devices, Sunnyvale, Calif., USA). After recording of the baseline (laser: excitation 488 nm at 1 W, CCD camera opening of 0.4 seconds) the agonists (50 μl) were added to the cell plate using the FLIPR 96-tip pipettor while simultaneously recording the fluorescence.
Calcium kinetic data were normalized to the maximal fitted response induced by epibatidine, which is a full agonist at α7-nAChR. Four parameter Hill equations were fitted to the concentration-response. Values of Emax (maximal effect in % compared to the epibatidine response) and EC50 (concentration producing half the maximal effect in μM) were derived from this fit.

[3] = levodopa/benserazide without compound A-1
[4] = MPTP monkeys, A-1 20 mg/kg plus levodopa/benserazide, result in words
[5] = compound A-1 20 mg/kg oral before levodopa/benserazide

## N[C@@H](Cc1ccc(O)c(O)c1)C(=O)O [levodopa, reference compound]
Parkinsonian primates; [3]
  Duration of Levodopa-Response: 230 min
  Mean Dyskinesia Score (total period): 2.8

## c1cc2cc(-c3cnc(O[C@H]4CCN5CCC[C@@H]4C5)nc3)ccc2[nH]1 [C-1, (4S,5R)-4-[5-(1H-indol-5-yl)-pyrimidin-2-yloxy]-1-aza-bicyclo[3.3.1]nonane]
[1]; 0.25 hour
  Brain (pmoles/g ± SD): 620 ± 221 pmol/g
[1]; 0.5 hour
  Brain (pmoles/g ± SD): 1405 ± 539 pmol/g
[1]; 1 hour
  Brain (pmoles/g ± SD): 1458 ± 189 pmol/g
[1]; 2 hour
  Brain (pmoles/g ± SD): 1478 ± 259 pmol/g
[1]; 4 hour
  Brain (pmoles/g ± SD): 842 ± 187 pmol/g
[1]; 8 hour
  Brain (pmoles/g ± SD): 362 ± 62 pmol/g
[2]
  fold selectivity: 388 fold
mice; dose 0.3 mg/kg
  Reduction in time scrutinizing in % ± SEM at 24 h: 51 ± 3%
Human α7-nAChR
  α7-nAChR activity Efficacy compared to epibatidine (100%): 84%

## C[C@H](OC(=O)N[C@@H]1CN2CCC1CC2)c1ccccc1F [A-1, (S)-(1-aza-bicyclo[2.2.2]oct-3-yl)-carbamic acid (S)-1-(2-fluoro-phenyl)-ethyl ester]
[1]; 0.5 hour
  Brain (pmoles/g ± SD): 706.3 ± 153.4 pmol/g
[1]; 1 hour
  Brain (pmoles/g ± SD): 573.7 ± 109.3 pmol/g
[1]; 2 hour
  Brain (pmoles/g ± SD): 191.9 ± 34.9 pmol/g
[1]; 4 hour
  Brain (pmoles/g ± SD): 104.6 ± 39.6 pmol/g
[1]; 6 hour
  Brain (pmoles/g ± SD): 40.5 ± 12.1 pmol/g
[1]; 24 hour
  Brain (pmoles/g ± SD): 9.1 ± 2.7 pmol/g
[2]
  fold selectivity: 234 fold
mice; dose 3 mg/kg
  Reduction in time scrutinizing in % ± SEM at 24 h: 52 ± 4%
Human α7-nAChR
  α7-nAChR activity Efficacy compared to epibatidine (100%): 83%
Human α7-nAChR; read-out: α7-nAChR activity Potency EC50
  EC50: 100 nM
Parkinsonian primates; [4]
  antiparkinsonian activity of levodopa (antiparkinsonian score): does not lower
  duration of the antiparkinsonian activity of levodopa: significantly increases
  levodopa-induced dyskinesias: significantly reduces
  onset of action of levodopa (Elapsed Time after Levodopa Administration): does not delay
Parkinsonian primates; [5]
  Duration of Levodopa-Response: 265 min
  Mean Dyskinesia Score (total period): 2.1

## C[C@H]1[C@H](Oc2ccc(-c3ccc4[nH]ccc4c3)nn2)C2CCN1CC2 [B-13, (2S,3R)-3-[6-(1H-indol-5-yl)-pyridazin-3-yloxy]-2-methyl-1-aza-bicyclo[2.2.2]octane]
[1]; 0.25 hour
  Brain (pmoles/g ± SD): 1884 ± 291 pmol/g
  Plasma (pmoles/ml ± SD): 2196 ± 397 pmol/mL
[1]; 0.5 hour
  Brain (pmoles/g ± SD): 2960 ± 706 pmol/g
  Plasma (pmoles/ml ± SD): 2265 ± 419 pmol/mL
[1]; 1 hour
  Brain (pmoles/g ± SD): 2940 ± 335 pmol/g
  Plasma (pmoles/ml ± SD): 1554 ± 523 pmol/mL
[1]; 2 hour
  Brain (pmoles/g ± SD): 1260 ± 172 pmol/g
  Plasma (pmoles/ml ± SD): 1172 ± 252 pmol/mL
[1]; 4 hour
  Brain (pmoles/g ± SD): 379 ± 134 pmol/g
  Plasma (pmoles/ml ± SD): 429 ± 167 pmol/mL
[1]; 8 hour
  Brain (pmoles/g ± SD): 93 ± 30 pmol/g
  Plasma (pmoles/ml ± SD): 80 ± 23 pmol/mL
[1]; 24 hour
  Brain (pmoles/g ± SD): 13 ± 4 pmol/g
[2]
  fold selectivity: 324 fold
mice; dose 0.3 mg/kg
  Reduction in time scrutinizing in % ± SEM at 24 h: 37 ± 7%
Human α7-nAChR
  α7-nAChR activity Efficacy compared to epibatidine (100%): 89%
